Measured values published in US20230047208A1, “RNA Splicing Modulation” (The General Hospital Corporation, priority 2020, published 2023).

Tests used:
ELP1 exon 20 [1] = conditions: cited from earlier work
ELP1 exon 20 [2] = conditions: cited from earlier work; remark: listed apart in the source
CFTR channel = assay: CFTR functional assessment, short circuit current (Ussing chamber) in CFBE cells stably expressing c.2988G>A; type: cell-based, human; conditions: CFBE c.2988G>A, Compound (I) treated cells, 10 μM ivacaftor acute, apical side
Description: WT CFTR-EMG-i14-i18, CFTR-EMG-i14-i18 harboring c.2988G>A, Flp-In-CFBE, and Flp-In-293 cells stably expressing WT-EMG and c.2988G>A EMG were generated. Both Flpin-293 and Flp-In-CFBE cells lack endogenous CFTR expression (CFBE41o-) and contain a single Flp recombinase target site. Co-transfection of EMG plasmid with pOG44 (a plasmid encoding Flp recombinase) allowed for genomic integration at the FRT site. Hygromycin was used for stable cell selection.
Assessment of CFTR channel function and response to Compound (I) was performed in CFBEs stably expressing c.2988G>A. Briefly, CFBE stable cell lines were plated on snapwell filters. When transepithelial resistance reached ˜200Ω (˜ 5-7 days) as measured using Voltammeter (Physiologic Instruments), cells were treated with Compound (I) at varying doses (0.3 μM to 10 μM) for next 3 days. Filters were mounted in Ussing chambers (Physiological Instruments). A high chloride solution was added to the basolateral chamber and a low chloride solution was added to the apical chamber. After equilibration of currents, 10 μM forskolin (Selleckchem) was added to the basolateral side to activate CFTR channels via cAMP signaling. Currents were allowed to plateau, followed by acute addition of 10 μM ivacaftor at apical side for CFTR potentiation (Selleckchem). Inhibition of CFTR was performed using 10 μM Inh-172 (Selleckchem) added to the apical chamber.
The ability of Compound (I) to rescue chloride channel function was also assessed. CF bronchial epithelial (CFBE) cell lines was generated to stably express the splicing mutation c.2988G>A. Cells were grown in monolayers on filters and treated with increasing doses of Compound (I) (0.3 μM-10 μM) or DMSO for 3 days. Chloride channel function was assessed by measuring short circuit current (Isc) on treated CFBE cells. Forskolin was added to initiate CFTR channel activity via cAMP-mediated signaling, with further channel activation by Ivacaftor and inhibition with Inh-172, a CFTR-specific inhibitor (FIG. 9C, representative Isc tracing). CFTR-specific change in current (ΔIsc±SD) allows for measurement of chloride channel function (FIG. 9C). […] Significant recovery of CFTR function (˜3 fold) was observed following treatment with Compound (I) at 1, 3, 6, and 10 μM for 3 days, with a maximal increase in CFTR function achieved using 3 μM of Compound (I) (ΔIsc=37.168±4.32 μA/cm^2, FIG. 9C).

SMILES | Percent Spliced In (PSI) change for ELP1 exon 20 splicing (ELP1 exon 20 [1]; RNA sequencing after kinetin treatment) | additional exon-usage differences in response to kinetin (ELP1 exon 20 [1]; RNA sequencing) | usage differences that induced skipping of the middle exon (ELP1 exon 20 [1]; RNA sequencing) | usage differences that promoted inclusion of the middle exon (ELP1 exon 20 [1]; RNA sequencing) | doses needed to achieve inclusion of Exon 20 in vivo (ELP1 exon 20 [2]) | improvement in CFTR function on acute addition of Ivacaftor (CFTR channel) [fold]
c1coc(CNc2ncnc3nc[nH]c23)c1 [kinetin, 6-furfurylaminopurine] | 0.57 | 42 | 31 | 11 | extremely high doses are necessary | 
CC(C)(C)c1cc(C(C)(C)C)c(NC(=O)c2c[nH]c3ccccc3c2=O)cc1O [Ivacaftor, reference compound] |  |  |  |  |  | ~2
